Test results taken from patent publication US10413505B1, “Pharmaceutical compositions and methods of using the same” (priority 2017, dated 2019).
Where a name gives a salt, the structure may show the parent alone.

Tested on: healthy adult subjects
Assay: Example 11 ECG (QT/QTc) crossover study
Protocol: This was a single-dose, partially blinded, randomized, four-period, four-treatment, crossover study in which 24 healthy adult subjects received separate single doses of cocaine topical solution (8%), cocaine topical solution (4%), placebo, and moxifloxacin HCl tablet (400 mg) in four study periods. Each subject received a different treatment in each study period. Subjects received each of the following treatments in randomized fashion during the four treatment periods: (1) Treatment A: Cocaine hydrochloride, USP, topical solution, 8%; Dose=320 mg (80 mg/mL×4 mL); (2) Treatment B: Cocaine hydrochloride, USP, topical solution, 4%; Dose=160 mg (40 mg/mL×4 mL); (3) Treatment C: Placebo; and (4) Treatment D: AVELOX® (moxifloxacin hydrochloride); Dose=400 mg (1×400 mg tablet).
Treatments A, B, and C were blinded, while Treatment D was open label. Each drug administration was separated by a washout period of at least 4 days. […] Moxifloxacin HCl was orally administered along with approximately 240 mL (8 fl oz) of room temperature water.
A 25-hour continuous 12-lead ECG recording was performed on Day 1, starting 1 hour before dosing. At the designated time points, up to 10 replicate ECGs were extracted and intervals were measured using the High Precision QT technique. […] During protocol-specified ECG extraction windows, 10-second digital 12-lead ECG tracings were extracted from continuous recordings (preceded by a 10-minute supine rest period) at the following time points: predose (3 time points) and 20 minutes (end of cocaine dose; immediately after pledget removal), 40 minutes, and at 1, 1.25, 1.5, 2, 2.5, 3, 4, 6, 8, 12, and 24 hours after pledget insertion/moxifloxacin dosing.
The primary ECG endpoint was ΔQTcF. ΔQTcF is the QTc corrected for heart rate by the Fridericia method. The term “QTc”, as used herein, refers to the duration of the QT interval adjusted for the patient's heart rate.
The secondary ECG endpoints were: change-from-baseline heart rate (“HR”), time from beginning of the P-wave to the beginning of the next QRS complex (“PR”), deflections in the tracing of the electrocardiogram comprising the Q, R, and S waves that represent depolarization of the ventricles (“QRS”), time elapsed between two consecutive R waves (“RR”), and measure of the time in the tracing of the electrocardiogram between the start of the Q-wave and the end of the T-wave (“QT”); and T-wave morphological changes.

[1] = 400 mg, 20 min post-dose, QT/QTc Population
[2] = 400 mg, 40 min post-dose, QT/QTc Population
[3] = 400 mg, 1 hour post-dose, QT/QTc Population
[4] = 400 mg, 1.25 hour post-dose, QT/QTc Population
[5] = 400 mg, 1.5 hour post-dose, QT/QTc Population
[6] = 400 mg, 2 hours post-dose, QT/QTc Population
[7] = 400 mg, 3 hours post-dose, QT/QTc Population
[8] = 400 mg, 4 hours post-dose, QT/QTc Population
[9] = 400 mg, 6 hours post-dose, QT/QTc Population
[10] = 400 mg, 8 hours post-dose, QT/QTc Population
[11] = 400 mg, 12 hours post-dose, QT/QTc Population
[12] = 400 mg, 24 hours post-dose, QT/QTc Population
[13] = 400 mg, […] post-dose, QT/QTc Population
[14] = 20 min post-dose, QT/QTc Population
[15] = 40 min post-dose, QT/QTc Population
[16] = 1 hour post-dose, QT/QTc Population
[17] = 1.25 hour post-dose, QT/QTc Population
[18] = 1.5 hour post-dose, QT/QTc Population
[19] = 2 hours post-dose, QT/QTc Population
[20] = 3 hours post-dose, QT/QTc Population
[21] = 4 hours post-dose, QT/QTc Population
[22] = 6 hours post-dose, QT/QTc Population
[23] = 8 hours post-dose, QT/QTc Population
[24] = 12 hours post-dose, QT/QTc Population
[25] = 24 hours post-dose, QT/QTc Population
[26] = […] post-dose, QT/QTc Population

COc1c(N2C[C@@H]3CCCN[C@@H]3C2)c(F)cc2c(=O)c(C(=O)O)cn(C3CC3)c12 [moxifloxacin HCl, moxifloxacin hydrochloride]
peak ΔQTcF (400 mg oral, 4 hours post-dosing): 14.4 ms | peak ΔΔQTcF (400 mg oral, 4 h post-dose): 15.2 ms | ΔPR, change-from-baseline PR, LSMean [1]: 1.1 ms | ΔQRS, change-from-baseline QRS, LSMean [1]: -0.5 ms | ΔQT, change-from-baseline QT, LSMean [1]: -5.3 ms | ΔRR, change-from-baseline RR, LSMean [1]: -18.8 ms | ΔΔPR, placebo-corrected change-from-baseline PR, LSMean [1]: 2.1 ms | ΔPR, change-from-baseline PR, LSMean [2]: 1.4 ms | ΔQRS, change-from-baseline QRS, LSMean [2]: -0.5 ms | ΔQT, change-from-baseline QT, LSMean [2]: 2.2 ms | ΔRR, change-from-baseline RR, LSMean [2]: -15.8 ms | ΔΔPR, placebo-corrected change-from-baseline PR, LSMean [2]: 0.1 ms | ΔPR, change-from-baseline PR, LSMean [3]: 0.8 ms | ΔQRS, change-from-baseline QRS, LSMean [3]: -0.4 ms | ΔQT, change-from-baseline QT, LSMean [3]: 3.9 ms | ΔRR, change-from-baseline RR, LSMean [3]: -24.5 ms | ΔΔPR, placebo-corrected change-from-baseline PR, LSMean [3]: 0.1 ms | ΔPR, change-from-baseline PR, LSMean [4]: 0.5 ms | ΔQRS, change-from-baseline QRS, LSMean [4]: 0.2 ms | ΔQT, change-from-baseline QT, LSMean [4]: 3.9 ms | ΔRR, change-from-baseline RR, LSMean [4]: -35.1 ms | ΔΔPR, placebo-corrected change-from-baseline PR, LSMean [4]: -0.2 ms | ΔPR, change-from-baseline PR, LSMean [5]: -0.7 ms | ΔQRS, change-from-baseline QRS, LSMean [5]: 0.0 ms | ΔQT, change-from-baseline QT, LSMean [5]: 0.8 ms | ΔRR, change-from-baseline RR, LSMean [5]: -58.5 ms | ΔΔPR, placebo-corrected change-from-baseline PR, LSMean [5]: -1.9 ms | ΔPR, change-from-baseline PR, LSMean [6]: 0.2 ms | ΔQRS, change-from-baseline QRS, LSMean [6]: 0.0 ms | ΔQT, change-from-baseline QT, LSMean [6]: 4.2 ms | ΔRR, change-from-baseline RR, LSMean [6]: -33.8 ms | ΔΔPR, placebo-corrected change-from-baseline PR, LSMean [6]: 0.2 ms | ΔPR, change-from-baseline PR, LSMean [7]: -2.1 ms | ΔQRS, change-from-baseline QRS, LSMean [7]: 0.0 ms | ΔQT, change-from-baseline QT, LSMean [7]: 7.5 ms | ΔRR, change-from-baseline RR, LSMean [7]: -41.1 ms | ΔΔPR, placebo-corrected change-from-baseline PR, LSMean [7]: -2.1 ms | ΔPR, change-from-baseline PR, LSMean [8]: -1.5 ms | ΔQRS, change-from-baseline QRS, LSMean [8]: -0.0 ms | ΔQT, change-from-baseline QT, LSMean [8]: 6.7 ms | ΔRR, change-from-baseline RR, LSMean [8]: -121.3 ms | ΔΔPR, placebo-corrected change-from-baseline PR, LSMean [8]: -1.4 ms | ΔPR, change-from-baseline PR, LSMean [9]: -4.2 ms | ΔQRS, change-from-baseline QRS, LSMean [9]: -0.5 ms | ΔQT, change-from-baseline QT, LSMean [9]: -9.5 ms | ΔRR, change-from-baseline RR, LSMean [9]: -121.3 ms | ΔΔPR, placebo-corrected change-from-baseline PR, LSMean [9]: -2.6 ms | ΔPR, change-from-baseline PR, LSMean [10]: -5.2 ms | ΔQRS, change-from-baseline QRS, LSMean [10]: -0.5 ms | ΔQT, change-from-baseline QT, LSMean [10]: -7.6 ms | ΔRR, change-from-baseline RR, LSMean [10]: -88.8 ms | ΔΔPR, placebo-corrected change-from-baseline PR, LSMean [10]: -1.4 ms | ΔPR, change-from-baseline PR, LSMean [11]: -4.7 ms | ΔQRS, change-from-baseline QRS, LSMean [11]: -0.0 ms | ΔQT, change-from-baseline QT, LSMean [11]: -14.0 ms | ΔRR, change-from-baseline RR, LSMean [11]: -151.8 ms | ΔΔPR, placebo-corrected change-from-baseline PR, LSMean [11]: -3.9 ms | ΔPR, change-from-baseline PR, LSMean [12]: -0.9 ms | ΔQRS, change-from-baseline QRS, LSMean [12]: 0.1 ms | ΔQT, change-from-baseline QT, LSMean [12]: -6.6 ms | ΔRR, change-from-baseline RR, LSMean [12]: -65.8 ms | ΔΔPR, placebo-corrected change-from-baseline PR, LSMean [12]: 1.7 ms | T-wave morphology treatment emergent changes: Biphasic, Subject count (400 mg, QT/QTc Population): 0 | T-wave morphology treatment emergent changes: Biphasic, Timepoint count (400 mg, QT/QTc Population): 0 | T-wave morphology treatment emergent changes: Flat, Subject count (400 mg, QT/QTc Population): 0 | T-wave morphology treatment emergent changes: Flat, Timepoint count (400 mg, QT/QTc Population): 0 | T-wave morphology treatment emergent changes: Normal (−), Subject count (400 mg, QT/QTc Population): 0 | T-wave morphology treatment emergent changes: Normal (−), Timepoint count (400 mg, QT/QTc Population): 0 | T-wave morphology treatment emergent changes: Notched (+), Subject count (400 mg, QT/QTc Population): 0 | T-wave morphology treatment emergent changes: Notched (+), Timepoint count (400 mg, QT/QTc Population): 0 | T-wave morphology treatment emergent changes: Notched (−), Subject count (400 mg, QT/QTc Population): 0 | T-wave morphology treatment emergent changes: Notched (−), Timepoint count (400 mg, QT/QTc Population): 0 | ΔPR, change-from-baseline PR, LSMean [13]: -0.8 ms | ΔQRS, change-from-baseline QRS, LSMean [13]: -0.3 ms | ΔQT, change-from-baseline QT, LSMean [13]: 6.1 ms | ΔRR, change-from-baseline RR, LSMean [13]: -37.0 ms | ΔΔPR, placebo-corrected change-from-baseline PR, LSMean [13]: 0.5 ms | ΔHR (change-from-baseline HR), LSMean [14]: 1.0 bpm | ΔQTcF (change-from-baseline QTcF), LSMean [14]: -3.1 ms | ΔΔHR (placebo-corrected change-from-baseline HR), LSMean [14]: −4.4 bpm | ΔΔQTcF (placebo-corrected change-from-baseline QTcF), LSMean [14]: -0.1 ms | ΔHR (change-from-baseline HR), LSMean [15]: 1.3 bpm | ΔQTcF (change-from-baseline QTcF), LSMean [15]: 4.4 ms | ΔΔHR (placebo-corrected change-from-baseline HR), LSMean [15]: 0.4 bpm | ΔΔQTcF (placebo-corrected change-from-baseline QTcF), LSMean [15]: 5.4 ms | ΔHR (change-from-baseline HR), LSMean [16]: 1.8 bpm | ΔQTcF (change-from-baseline QTcF), LSMean [16]: 7.4 ms | ΔΔHR (placebo-corrected change-from-baseline HR), LSMean [16]: 1.7 bpm | ΔΔQTcF (placebo-corrected change-from-baseline QTcF), LSMean [16]: 7.8 ms | ΔHR (change-from-baseline HR), LSMean [17]: 2.6 bpm | ΔQTcF (change-from-baseline QTcF), LSMean [17]: 9.1 ms | ΔΔHR (placebo-corrected change-from-baseline HR), LSMean [17]: 2.7 bpm | ΔΔQTcF (placebo-corrected change-from-baseline QTcF), LSMean [17]: 8.7 ms | ΔHR (change-from-baseline HR), LSMean [18]: 3.9 bpm | ΔQTcF (change-from-baseline QTcF), LSMean [18]: 8.4 ms | ΔΔHR (placebo-corrected change-from-baseline HR), LSMean [18]: 3.8 bpm | ΔΔQTcF (placebo-corrected change-from-baseline QTcF), LSMean [18]: 7.9 ms | ΔHR (change-from-baseline HR), LSMean [19]: 2.3 bpm | ΔQTcF (change-from-baseline QTcF), LSMean [19]: 9.0 ms | ΔΔHR (placebo-corrected change-from-baseline HR), LSMean [19]: 3.1 bpm | ΔΔQTcF (placebo-corrected change-from-baseline QTcF), LSMean [19]: 8.9 ms | ΔHR (change-from-baseline HR), LSMean [20]: 2.6 bpm | ΔQTcF (change-from-baseline QTcF), LSMean [20]: 13.2 ms | ΔΔHR (placebo-corrected change-from-baseline HR), LSMean [20]: 2.5 bpm | ΔΔQTcF (placebo-corrected change-from-baseline QTcF), LSMean [20]: 13.0 ms | ΔHR (change-from-baseline HR), LSMean [21]: 3.4 bpm | ΔQTcF (change-from-baseline QTcF), LSMean [21]: 14.4 ms | ΔΔHR (placebo-corrected change-from-baseline HR), LSMean [21]: 1.6 bpm | ΔΔQTcF (placebo-corrected change-from-baseline QTcF), LSMean [21]: 15.2 ms | ΔHR (change-from-baseline HR), LSMean [22]: 8.2 bpm | ΔQTcF (change-from-baseline QTcF), LSMean [22]: 7.2 ms | ΔΔHR (placebo-corrected change-from-baseline HR), LSMean [22]: 2.5 bpm | ΔΔQTcF (placebo-corrected change-from-baseline QTcF), LSMean [22]: 10.9 ms | ΔHR (change-from-baseline HR), LSMean [23]: 5.7 bpm | ΔQTcF (change-from-baseline QTcF), LSMean [23]: 4.4 ms | ΔΔHR (placebo-corrected change-from-baseline HR), LSMean [23]: 1.6 bpm | ΔΔQTcF (placebo-corrected change-from-baseline QTcF), LSMean [23]: 11.5 ms | ΔHR (change-from-baseline HR), LSMean [24]: 10.7 bpm | ΔQTcF (change-from-baseline QTcF), LSMean [24]: 7.3 ms | ΔΔHR (placebo-corrected change-from-baseline HR), LSMean [24]: 1.5 bpm | ΔΔQTcF (placebo-corrected change-from-baseline QTcF), LSMean [24]: 9.6 ms | ΔHR (change-from-baseline HR), LSMean [25]: 4.2 bpm | ΔQTcF (change-from-baseline QTcF), LSMean [25]: 2.4 ms | ΔΔHR (placebo-corrected change-from-baseline HR), LSMean [25]: −0.0 bpm | ΔΔQTcF (placebo-corrected change-from-baseline QTcF), LSMean [25]: 7.5 ms | ΔHR (change-from-baseline HR), LSMean [26]: 2.6 bpm | ΔQTcF (change-from-baseline QTcF), LSMean [26]: 11.5 ms | ΔΔHR (placebo-corrected change-from-baseline HR), LSMean [26]: 0.9 bpm | ΔΔQTcF (placebo-corrected change-from-baseline QTcF), LSMean [26]: 9.8 ms
